These results are taken from publication PMC3722118, “Hellebrin and its aglycone form hellebrigenin display similar in vitro growth inhibitory effects in cancer cells and binding profiles to the alpha subunits of the Na^+/K^+-ATPase” (Molecular Cancer, 2013).

Like-named read-outs stand apart in the source and are kept apart here.

For one experiment, the system named is HT-29 colon cancer cells. Put plainly: MTT colorimetric in vitro growth inhibition assay. In kind it is cell-based, human. Conditions: read-out: IC50 (nM) HT-29. The gist of the method:
(§1)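 Optical density of formazan formed from MTT by living cells, treated versus control wells, gives the growth-inhibition measure. Cultures were kept in RPMI containing 10% heat-inactivated fetal calf serum and 4 mM glutamine, and every condition was run in six replicates.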

Experiment [1] has as its system PC-3 prostate cancer cells. Nature of the experiment: MTT colorimetric in vitro growth inhibition assay. In kind it is cell-based, human. Conditions: read-out: IC50 (nM) PC-3. An outline of the steps: as §1
A further experiment relates to SKMEL-28 melanoma cells. Put plainly: MTT colorimetric in vitro growth inhibition assay. In kind it is cell-based, human. The following applies: read-out: IC50 (nM) SKMEL-28. An outline of the steps:
as §1

For the next experiment, the system named is T98G glioma cells. Nature of the experiment: MTT colorimetric in vitro growth inhibition assay. In kind it is cell-based, human. The following applies: read-out: IC50 (nM) T98G. An outline of the steps:
as §1

The target in another experiment is T1, human α1β1 NaK complex (Homo sapiens, UniProt P05023).
T1 construct: made in house; host or cells: Pichia pastoris strain SMD1165 (membranes)
Nature of the experiment: 3H-ouabain competitive displacement on P. pastoris membranes. The experiment is classed as binding. Conditions: for Kd: 3H-ouabain displacement, three independent experiments, read-out: Affinity (nM) α-1 (KD ± SEM); for fold higher affinity for α1 than for the α2 and α3 subunits: from Table 2 KD values. As for the experimental part:
(§2) K0.5 was calculated using a one site inhibition model: B/BCG=0 = K0.5/([CG] + K0.5). […] Binding of each cardiac glycoside was estimated in 3 separate experiments.
(§3) Average KD or Ki values ± SEM for each isoform were calculated. Statistical significance was calculated by the unpaired Students t-test. P values <0.05 were considered significant.

In another experiment the target is T2, human α2β1 NaK complex (Homo sapiens, UniProt P50993).
T2 construct: made in house; host or cells: Pichia pastoris strain SMD1165 (membranes)
The description is as above. In kind it is binding. The following applies: for Kd: 3H-ouabain displacement, three independent experiments, read-out: Affinity (nM) α-2 (KD ± SEM); for Selectivity α-1 / α-2: ratio of KD α-1 to KD α-2. On the procedure:
as §2, §3

The target in another experiment is T3, human α3β1 NaK complex (Homo sapiens, UniProt P13637).
T3 construct: made in house; host or cells: Pichia pastoris strain SMD1165 (membranes)
The experiment is described as above. In kind it is binding. The following applies: for Kd: 3H-ouabain displacement, three independent experiments, read-out: Affinity (nM) α-3 (KD ± SEM); for Selectivity α-1 / α-3: ratio of KD α-1 to KD α-3. As for the experimental part: as §2, §3

Experiment [2] deals with T4, purified human α1β1 Na+/K+-ATPase (Homo sapiens, UniProt P05023).
T4 construct: made in house; host or cells: Pichia pastoris strain SMD1165; detergent-soluble complex purified
Put plainly: Inhibition of NaK activity of purified detergent-soluble complex (Pi release). In kind it is biochemical. Conditions: for selectivity in inhibition of NaK activity of all of the purified complexes: comparison of α1β1, α2β1, α3β1 purified complexes. On the procedure: The inhibition of NaK activity of the purified detergent-soluble α1β1, α2β1, and α3β1 complexes by cardiotonic steroids and an analysis of the inhibition data (Ki values) were also performed as previously described. The inhibitors were added to the recombinant enzyme (0.08–0.2 μg of protein) in 400 μl of reaction medium containing 130 mM NaCl, 5 mM KCl, 3 mM MgCl2, 25 mM histidine, pH 7.4, 1 mM EGTA, 0.01 mg/ml SOPS, 0.001 mg/ml cholesterol, and 0.005 mg/ml C12 E8 in 48-well plates. The reaction (37°C for 1 h) was started by the addition of 1mM ATP. Pi release was measured with a malachite green dye to detect the phosphor-molybdate (Pi Color Lock, Innova Biosciences). The percent inhibition V /V0 was calculated for each cardiac glycoside concentration, and Ki values were obtained by fitting the data to the function V /V0 = Ki /([CG] + Ki ) (using Kaleidagraph). V0 and V represent the control rate and rate of NaK-ATPase activity at particular concentrations of cardiac glycosides, [CG], respectively.
as §3

A further experiment has as its system MDR cancer cell models. Put plainly: MTT viability in several MDR cancer cell models. In kind it is cell-based, human. Conditions: overexpression of ABC-transporters and/or altered glutathione metabolism, 72 hours. The source says:
The following human cancer cell lines and their chemoresistant sublines were used in this study: the colon carcinoma cell line HCT-116 p53/wt and the p53 knock-out cell line HCT-116 p53/ko (generously donated by B. Vogelstein, Johns Hopkins University, Baltimore, MD, USA); the epidermal carcinoma-derived cell line KB-3-1 and the ABCB1-overexpressing subline KB-C-1 (generously donated by D.W. Shen, Bethesda, USA); the small cell lung carcinoma cell line GLC-4 and the ABCC1- and LRP-overexpressing subline GLC-4/ADR (from E.G. de Vries, Groningen, Netherlands); the ovarian carcinoma cell line A2780 and the cisplatin resistant subline A2780cis (purchased from Sigma-Aldrich); and the promyelocytic leukemia cell line HL60 and the mitoxantrone resistant subline HL60/mx (generously donated by G. Harker, Salt Lake City, USA). All cell lines were grown in RPMI 1640 supplemented with 10% fetal bovine serum with the exception of the HCT-116 cells, which were grown in McCoy’s medium with 10% serum.
Figure 4 Impact of different MDR mechanisms on the cytotoxicity of hellebrigenin. […] Viability was determined using a 3-(4,5-dimethythiazol-2-yl)-2,5-diphenyltetrazolium bromide (MTT) colorimetric assay. […]

[3] abbreviates: three days of culture, * three independent experiments, ** one experiment, six replicates.

What is called IC50 is the concentration that gives 50% inhibition. One may read the Kd as the equilibrium constant for the complex coming apart. The Ki is the dissociation constant of the complex between target and ligand, obtained from inhibition or displacement. `C[C@]12CC[C@H]3[C@@H](CC[C@]4(O)C[C@@H](O)CC[C@]34C=O)[C@@]1(O)CC[C@@H]2c1ccc(=O)oc1` [Hellebrigenin]: the IC50 in the experiment with HT-29 colon cancer cells (setting [3]) is 9 ± 1 nM; in experiment [1] (setting [3]) it was 18 ± 1 nM; with SKMEL-28 melanoma cells (setting [3]), 28 ± 9 nM; in the experiment with T98G glioma cells (setting [3]), 9 ± 1 nM. In addition, the results for the Kd at human α1β1 NaK complex, at human α2β1 NaK complex and at human α3β1 NaK complex were 103 ± 19 nM, 198 ± 51 nM and 191 ± 23 nM, respectively. In addition, at human α1β1 NaK complex, the “fold higher affinity for α1 than for the α2 and α3 subunits” value is given as ~ 2 fold. In addition, the “Selectivity α-1 / α-2” value at human α2β1 NaK complex is recorded as 0.5. The “Selectivity α-1 / α-3” value on human α3β1 NaK complex came to 0.5. The Ki in experiment [2] (37°C, 1 h, 1 mM ATP, read-out: Ki for inhibition of NaK activity of purified human α1β1) came out at 46 ± 6 nM. Besides, the “selectivity in inhibition of NaK activity of all of the purified complexes” value in experiment [2] was “no selectivity”. Also, the “activity in several MDR cancer cell models versus parental cells” value with MDR cancer cell models was “equally active”.
On to `C[C@@H]1O[C@@H](O[C@H]2CC[C@]3(C=O)[C@H]4CC[C@]5(C)[C@@H](c6ccc(=O)oc6)CC[C@]5(O)[C@@H]4CC[C@]3(O)C2)[C@H](O)[C@H](O)[C@H]1O[C@@H]1O[C@H](CO)[C@@H](O)[C@H](O)[C@H]1O` [Hellebrin], for which the 50% inhibitory concentration (IC50) came out at 27 ± 4 nM in the experiment on HT-29 colon cancer cells (Homo sapiens, HT-29, 72 h); 11 ± 1 nM in experiment [1] (Homo sapiens, 72 h); 40 ± 5 nM with SKMEL-28 melanoma cells (Homo sapiens, SK-MEL-28, 72 h); 30 ± 1 nM in the experiment with T98G glioma cells (Homo sapiens, T98G, 72 h). For the same molecule, the Kd at human α1β1 NaK complex came out at 86 ± 18 nM; on human α2β1 NaK complex it was 218 ± 52 nM; on human α3β1 NaK complex, 175 ± 20 nM. At human α1β1 NaK complex, the “fold higher affinity for α1 than for the α2 and α3 subunits” value is reported as ~ 2 fold. In addition, the “Selectivity α-1 / α-2” value at human α2β1 NaK complex was 0.4. Besides, at human α3β1 NaK complex, the “Selectivity α-1 / α-3” value worked out at 0.5. Further, the Ki in experiment [2] came out at 103 ± 7 nM. For the same molecule, in experiment [2], the “selectivity in inhibition of NaK activity of all of the purified complexes” value is listed as “no selectivity”. Besides, the “activity in several MDR cancer cell models versus parental cells” value in the experiment with MDR cancer cell models is reported as “equally active”.
